{"source": "paper PMC5731860", "about": "“Novel allylated monocarbonyl analogs of curcumin induce mitotic arrest and apoptosis by reactive oxygen species-mediated endoplasmic reticulum stress and inhibition of STAT3” (Oncotarget, 2017)", "key": {"SGC-7901 [1]": {"test_system": "SGC-7901", "assay": "Clonogenic (colony formation) assay", "assay_type": "cell-based, human", "conditions": "SGC-7901, 2.5, 5 or 10 μM for 24 h, then 7 days culture", "procedure": "(§1) The BGC-823 and SGC-7901 cells were seeded at 1000 cells/well in 6 well plates and allowed to attach overnight. Cells were then exposed to various concentrations (2.5, 5 and 10 μM) of CA10 for 24 h in presence and absence of NAC (5 mM). Following treatments, media was changed to fresh culture media and cultures were followed for 7 days. The experiment was terminated by washing the colonies with PBS and fixation with […] at room temperature for 10 min. Colonies were then stained with Crystal violet for 10 min and counted."}, "BGC-823 [2]": {"test_system": "BGC-823", "assay": "Clonogenic (colony formation) assay", "assay_type": "cell-based, human", "conditions": "BGC-823, 2.5, 5 or 10 μM for 24 h, then 7 days culture", "procedure": "as §1"}, "SW-480": {"test_system": "SW-480", "assay": "MTT assay, growth inhibition", "assay_type": "cell-based, human", "conditions": "Homo sapiens, SW480, 24 h", "procedure": "(§2) First, we investigated whether allylated MAC alter the viability or have cytotoxic effects on cells in culture. We have performed MTT tetrazolium reduction assay following exposure of cancer cells (gastric cancer, BGC823 and SGC-7901; colon cancer, HT-29, HCT-116 and SW-480) and normal gastric epithelial cells (GES-1) to all 20 allylated MAC at a concentration of 20 μM for 24 h. […] In addition, we also found notable solubility and stability profile of these compounds (Supplementary Figure 1).\n(§3) Cells were plated at a density of 8 × 10^3 cells/well in 96-well plates and allowed to attach overnight. Stock solutions of allylated MAC and curcumin were prepared in DMSO and diluted in culture media to obtain appropriate concentration. Cells were treated for 24 h and 48 h, following which, 20 μL of 5 mg/ml MTT reagent was added. Purple formazan product was dissolved by the addition of 100 μL DMSO to each well. Absorbance was then monitored at 490 nm using a plate reader (Molecular Device Spectra MAX190, USA). Percentage of cytotoxicity was determined using the following formula: Growth inhibition (%) = (OD of control−OD of test/OD of control×100%)."}, "HCT-116": {"test_system": "HCT-116", "assay": "MTT assay, growth inhibition", "assay_type": "cell-based, human", "procedure": "as §2, §3"}, "[3]": {"test_system": "SGC-7901 xenograft tumors", "assay": "In vivo mouse xenograft model, tumor growth", "set-up": "species or system mice", "text": "(§4) All animal experiments complied with the Wenzhou Medical University's Policy on the Care and Use of Laboratory Animals. Protocols for animal studies were approved by the Wenzhou Medical University Animal Policy and Welfare Committee (Approved documents: 2016/201). Athymic BALB/c nu/nu female mice weighing 20–22 g (6 weeks old) were purchased from Vital River Laboratories (Beijing, China). Animals were housed (6 animals/gage) at a constant room temperature with a 12/12-hr light/dark cycle and fed a standard rodent diet and water ad libitum. SGC-7901 cells were injected subcutaneously into the right flank of each mice at 1 × 10^6 cells in 0.1 mL PBS. Once tumors reached a volume of 100–200 mm^3, mice were randomly divided into 4 groups. These groups included mice treated with 10 mg/kg CA10, mice treated with 20 mg/kg CA10, mice treated 50 mg/kg curcumin, and control mice receiving vehicle alone. All treatments were carried out with intraperitoneal injections. The body weight and tumor volumes were monitored and determined by measuring length (l) and width (w) and calculated as tumor volume (V = 0.5 × l × w2) at the indicated time points. At the end of treatment period, mice were sacrificed and the tumors were removed and weighed for histological analyses and proteins measurement studies."}, "[4]": {"test_system": "p-PERK, p-eIF2α, ATF-4 and CHOP", "assay": "Western blot of ER stress proteins", "assay_type": "cell-based, human", "conditions": "SGC-7901, 10 μM, 1, 3, 6 and 12 h", "procedure": "(§5) Protein samples were prepared from cells following treatments or tumor tissues. Protein concentration was determined by Bradford protein assay kit (Bio-Rad, Hercules, CA). Samples were separated on precast 8%-12% SDS polyacrylamide gels. After electrophoresis, proteins were transferred to poly vinylidene difluoride (PVDF) membrane. The membranes were blocked with 5% non-fat milk in tris-buffered saline containing 0.1% Tween 20 (TBST) for 90 min at room temperature, then primary antibodies (1:1000) in TBST were added and membranes incubated overnight at 4°C. After washing with TBST, horseradish peroxidase (HRP)-conjugated secondary antibodies (1:3000) were added for 1 hour at room temperature. After additional washing with TBST, enhanced chemiluminescence detection system (ECL, GE Healthcare) was used. Membranes were probed for GAPDH as a loading control. The density of the immunoreactive bands was analyzed using Image J (National Institute of Health, MD)."}, "SGC-7901 cells": {"test_system": "SGC-7901 cells", "assay": "Malondialdehyde (MDA) and total GSH in cancer cells", "assay_type": "cell-based, human", "procedure": "The treated cells were harvested with RIPA buffer at 4°C. Cell lysates were then centrifuged at 12,000 × g for 10 min at 4°C to collect the supernatant. Protein content was determined by the Bradford protein assay kit. Equal amounts of proteins were used for malondialdehyde (MDA) and total GSH assay (Beyotime Institute of Biotechnology, Nantong, China). MDA and total GSH levels were detected by measuring absorbance respectively at 532 nm and 412 nm using a multimode microplate reader (Molecular Devices, SpectraMax 190, USA"}, "HT-29": {"test_system": "HT-29", "assay": "MTT assay, growth inhibition", "assay_type": "cell-based", "conditions": "Homo sapiens, HT-29, 24 h", "procedure": "as §2, §3"}, "[5]": {"assay": "H&E histology of vital organs of xenograft mice", "assay_type": "in vivo", "conditions": "ip once a day for 12 days", "procedure": "Portions of heart, liver, kidney and tumor tissues from mice were fixed in 4% paraformaldehyde solution for 1 week at room temperature. Specimens were then dehydrated by passing through graded ethanol, cleared in xylene, and embedded in paraffin wax. Tissue blocks were sectioned at 5 μm thickness and used for H&E and immunohistochemical staining. Tumor tissue sections were stained with indicated primary antibodies for overnight followed by secondary antibodies for 2 h. Diaminobenzidine (DAB) was used for detection. The slides were counterstained with hematoxylin for 30 seconds and mounted. For histologic analysis of heart, kidney and liver tissue sections, we performed routine H&E staining and viewed the sections under a light microscope (20× magnification, Nikon, Japan)."}, "SGC-7901 [6]": {"test_system": "SGC-7901", "assay": "MTT assay, growth inhibition / cell viability", "assay_type": "cell-based", "conditions": "Homo sapiens", "procedure": "as §2, §3"}, "BGC-823 [7]": {"test_system": "BGC-823", "assay": "MTT assay, growth inhibition / cell viability", "assay_type": "cell-based", "conditions": "Homo sapiens", "procedure": "as §2, §3"}, "GES-1": {"test_system": "GES-1", "assay": "MTT assay, growth inhibition in normal gastric epithelial cells", "assay_type": "cell-based, human", "procedure": "as §2, §3"}, "p-STAT3": {"test_system": "p-STAT3", "assay": "Western blot of p-STAT3", "assay_type": "cell-based, human", "conditions": "SGC-7901, western blot, 1, 3, 6 and 12 h; total STAT3 not changed", "procedure": "as §5"}, "[8]": {"assay": "Body weight of xenograft mice", "assay_type": "in vivo", "conditions": "0–12 days, ip once a day; CA10 10 and 20 mg/kg, curcumin 50 mg/kg", "text": "as §4"}}, "note": "Entries after “also recorded” stand apart in the source; their conditions may differ."}
{"smiles": "C=CCc1cc(C=C2CCC(=Cc3ccc(O)c(CC=C)c3)C2=O)ccc1O", "note": "[CA10]", "values": [{"measurement": "number of colonies", "setting": "SGC-7901 [1]", "result": "reduced number"}, {"measurement": "number of colonies", "setting": "BGC-823 [2]", "result": "reduced number"}, {"measurement": "inhibition at 20 µM", "setting": "SW-480", "result": "77.4 ± 7.84", "unit": "%"}, {"measurement": "% Of growth inhibition HCT-116", "setting": "HCT-116; 20 μM, 24 h", "result": "75.37 ± 4.52", "unit": "%"}, {"measurement": "inhibition at 20 µM", "setting": "HCT-116; Homo sapiens, HCT-116, 24 h", "result": 70, "unit": "%"}, {"measurement": "inhibition effect on tumor growth compared to CA10 10 mg/kg or curcumin 50 mg/kg", "setting": "[3]; 20 mg/kg ip once a day for 12 days", "result": "greater inhibition effect"}, {"measurement": "tumor weight and volume", "setting": "[3]; ip once a day for 12 days, CA10 10 and 20 mg/kg, curcumin 50 mg/kg", "result": "significant reduction"}, {"measurement": "expression of ER specific proteins (p-PERK, p-eIF2α, ATF-4, CHOP)", "setting": "[4]", "result": "increased expression"}, {"measurement": "level of total GSH", "setting": "SGC-7901 cells; compared to control", "result": "no significant changes; also recorded: marginally decreased"}, {"measurement": "MDA level", "setting": "SGC-7901 cells; enhanced at 20 μM", "result": "increased"}, {"measurement": "inhibition at 20 µM", "setting": "HT-29", "result": "77.2 ± 4.86", "unit": "%"}, {"measurement": "toxicity in vital organs (heart, liver, kidney), H&E", "setting": "[5]", "result": "without overt toxicity"}, {"measurement": "IC50", "setting": "SGC-7901 [6]; SGC-7901, 24 h", "result": "15 ± 1.72", "unit": "µM"}, {"measurement": "inhibition at 20 µM", "setting": "SGC-7901 [6]; SGC-7901, 24 h, 20 μM, 24 h", "result": "> 80", "unit": "%"}, {"measurement": "IC50", "setting": "SGC-7901 [6]; SGC-7901, 48 h", "result": "6.91 ± 0.43", "unit": "µM"}, {"measurement": "inhibition at 20 µM", "setting": "BGC-823 [7]; BGC-823, 20 μM, 24 h", "result": "67.5 ± 1.54", "unit": "%"}, {"measurement": "IC50", "setting": "BGC-823 [7]; BGC-823, 24 h", "result": "13 ± 2.48", "unit": "µM"}, {"measurement": "IC50", "setting": "BGC-823 [7]; BGC-823, 48 h", "result": "7.14 ± 1.69", "unit": "µM"}, {"measurement": "inhibition of the normal epithelial cells (selective cytotoxicity in cancer cell lines), in words", "setting": "GES-1; 20 μM, 24 h", "result": "minimal inhibition"}, {"measurement": "inhibition at 20 µM", "setting": "GES-1; Homo sapiens, GES1, 24 h, normal gastric epithelial cells", "result": "23.4 ± 7.48", "unit": "%"}, {"measurement": "protein levels of p-STAT3", "setting": "p-STAT3", "result": "decreased"}, {"measurement": "body weight of mice", "setting": "[8]", "result": "no change"}]}
